Patent US20190064146A1, “IMMUNE CELLS HAVING INCREASED IMMUNITY OR RESISTANCE TO AN IMMUNOSUPPRESSIVE CYTOKINE AND USE OF THE SAME” (Innate Tumor Immunity, INC., priority 2015, published 2019)

System: EG.7 tumor cells
Assay: Adoptive transfer of in vitro activated OT-1 CD8+ T cells into mice with established EG.7 flank tumors
Format: in vivo
Conditions: OT-1 splenocytes activated with OVA antigen 1 μg/mL plus TGF-β 10 ng/mL and IL-1β 10 ng/mL for 5 days; 5×10^6 CD8+ cells intraperitoneally into C57BL/6J mice with 7-day EG.7 tumors
Method: To induce tumor, 1×10^6 EG.7 tumor cells, which expressed the OVA antigen, were injected subcutaneously on the flank of Black/6 mice. In this condition, after 7 days EG.7 cells from palpable tumors. To generate anti-tumor T cells, splenocytes from OT-1 mice, which have a transgenic TCR that recognize OVA antigen, were activated with OVA antigen (1 μg/mL) in the presence of TGF-β, or the presence of TGF-β and IL-1β. After 5 days CD8^+ cells were purified. […] Tumor volume was recorded 3 times a week until the end of the study. […]
OT-1 mice were anesthetized and spleens were harvested and strained through a 70-um filter with PBS with 10% FBS. […] After washing, cells were counted and placed in tissue culture at a final concentration of 1×10^6 cells/mL. […]
Tumors were established with subcutaneous flank injections of 1×10^6 cells suspended in 100 μL PBS. Tumors were measured three times a week and volumes were estimated using the formula 3.14×[largest diameter×(perpendicular diameter)^2]/6. […]
The average tumor volumes of the combination treatment group over time was plotted and compared to control treated with vehicle. […] For statistical comparisons, Two-Way Anova with Bonferroni correction was calculated with GaphPrism software.

## IL-1β: exemplary NLRP3 activator; cytokine interleukin-1β added to T cell culture
  CD8+ antitumor activity against established cancer (tumor volume): promotes CD8^+ antitumor activity against established cancer
